Results: PubChem BioAssay (NCI)
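Cells were grown in 96-well plates and exposed to each compound for 48 hours at five concentrations; endpoints were interpolated linearly between bracketing concentrations, or set to the highest concentration if not reached. TGI: total growth inhibition.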

Columns and labels:
Assay in all cases: inhibition of tumour cell growth, NCI panel, 48 h
786-0 renal = test system: 786-0 renal
HL-60(TB) leukemia = test system: HL-60(TB) leukemia
ACHN renal = test system: ACHN renal
RXF 393 renal = test system: RXF 393 renal
KM12 colon = test system: KM12 colon
EKVX NSCLC = test system: EKVX NSCLC
SK-MEL-2 melanoma = test system: SK-MEL-2 melanoma
M14 melanoma = test system: M14 melanoma
IGROV1 ovarian = test system: IGROV1 ovarian
CAKI-1 renal = test system: CAKI-1 renal
HCC-2998 colon = test system: HCC-2998 colon
TK-10 renal = test system: TK-10 renal
A498 renal = test system: A498 renal
UACC-257 melanoma = test system: UACC-257 melanoma
OVCAR-4 ovarian = test system: OVCAR-4 ovarian
U251 CNS = test system: U251 CNS

Compound | TGI (786-0 renal) [µM] | TGI (HL-60(TB) leukemia) [µM] | TGI (ACHN renal) [µM] | TGI (RXF 393 renal) [µM] | TGI (KM12 colon) [µM] | TGI (EKVX NSCLC) [µM] | TGI (SK-MEL-2 melanoma) [µM] | TGI (M14 melanoma) [µM] | TGI (IGROV1 ovarian) [µM] | TGI (CAKI-1 renal) [µM] | TGI (HCC-2998 colon) [µM] | TGI (TK-10 renal) [µM] | TGI (A498 renal) [µM] | TGI (UACC-257 melanoma) [µM] | TGI (OVCAR-4 ovarian) [µM] | TGI (U251 CNS) [µM]
COc1cc2c(OC)c3cc(C)oc(=O)c3c(O)c2c(O)c1-c1c(OC)cc2c(OC)c3cc(C)oc(=O)c3c(O)c2c1O | 60.8 | 33.9 | 33.3 | 35.9 | 40.4 | 62.3 | 35.8 | 35.4 | 31.1 | 47 | 33.5 | 66.8 | 51 | 44.1 | > 100 | 31.7
O=C1NC(=S)NC1C(Cc1ccccc1)c1ccco1 (configuration not stated) | > 100 | > 100 | > 100 | > 100 | > 100 | > 100 | – | > 100 | > 100 | > 100 | > 100 | > 100 | > 100 | > 100 | > 100 | > 100
COc1ccc(/C=C2\C(=O)Nc3ccccc32)cc1OC | > 100 | > 100 | > 100 | > 100 | > 100 | > 100 | > 100 | > 100 | > 100 | > 100 | – | > 100 | > 100 | > 100 | > 100 | > 100
O=C(CC(O)(C(F)(F)Cl)C(F)(F)Cl)CC(O)(C(F)(F)Cl)C(F)(F)Cl | > 10 | 4.94 | > 10 | 6.08 | > 10 | 8.02 | 3.54 | > 10 | > 10 | 6.62 | > 10 | > 10 | 7.74 | 6.17 | 9.67 | 7.39
Cc1ccc(C2=NN=C3C(c4ccccc4)=Nc4ccccc4N3C2)cc1 | > 50.7 | 9.64 | > 100 | 33.7 | > 100 | > 42.6 | > 100 | 34.4 | > 100 | > 100 | > 100 | 1.78 | > 100 | 33.6 | 21.8 | > 81.1
Cc1cc(C)c2c(=O)cc(-c3ccccc3)[nH]c2c1 | 11.4 | 4.71 | 23.5 | 5.11 | 22.1 | 42.8 | 55.9 | > 82.4 | 35.4 | > 47.2 | – | 22.8 | 10.5 | > 100 | 31 | 18
CCOc1ccc(-n2c(=O)c3nn4c(=O)n(-c5ccc(OCC)cc5)c(=O)c4nn3c2=O)cc1 | > 100 | > 100 | > 100 | > 100 | > 100 | > 100 | > 100 | > 100 | > 100 | > 100 | > 100 | > 100 | 67.9 | > 100 | > 100 | > 100
Brc1ccc(N=C/C=C(\Nc2ccc(Br)cc2)C23CC4CC(CC(C4)C2)C3)cc1 | 28.9 | 23.3 | 23.2 | 29 | 33.9 | 56.2 | 28.3 | 71 | 28 | 25.4 | 35.8 | 28.6 | 79.7 | 36.8 | 31.3 | 28.7
Nc1c2ccccc2nc2nccnc12 | > 100 | > 100 | > 100 | > 100 | > 100 | > 100 | > 100 | > 100 | > 100 | > 100 | > 100 | > 100 | > 100 | > 100 | > 100 | > 100
CCN(CC)CCC1CCCCN1CC(=O)N1c2ccccc2NC(=O)CC1C (configuration not stated) | > 100 | > 100 | > 100 | > 100 | > 100 | > 100 | > 100 | > 100 | > 100 | > 100 | > 100 | > 100 | > 100 | > 100 | > 100 | > 100
COc1ccc(NS(=O)(=O)c2ccc3ncn(NS(=O)(=O)c4ccc(I)cc4)c(=O)c3c2)cc1 | > 100 | > 100 | > 100 | > 100 | > 100 | > 100 | > 100 | > 100 | > 100 | > 100 | > 100 | > 100 | > 100 | > 100 | > 100 | > 100
N=C(N)SCCSC(=N)N | > 100 | – | > 100 | > 100 | > 100 | > 100 | – | > 100 | > 100 | > 100 | > 100 | > 100 | > 100 | > 100 | > 100 | > 100
Clc1ccc(-c2cn3c(nc4ccccc43)c(/C=C/c3cccs3)n2)cc1 | > 100 | > 100 | > 100 | > 100 | > 100 | – | > 100 | > 100 | > 100 | – | > 100 | > 100 | > 100 | > 100 | > 100 | > 100
CC(=O)OC12c3ccccc3C(c3ccccc31)C1C(=O)N(c3ccccc3O)C(=O)C12 (configuration not stated) | > 100 | > 100 | > 100 | > 100 | > 100 | > 100 | – | > 100 | > 100 | > 100 | > 100 | > 100 | > 100 | > 100 | > 100 | > 100
CO[C@@H]1C[C@H]2[C@@H]3CC[C@H]([C@@H](C)COC(C)=O)[C@@]3(C)CC[C@@H]2[C@@]2(C)CC[C@H]3C[C@]312 | 30.8 | 19.1 | 30.2 | 35.7 | 23.2 | 28 | – | 38 | 30.2 | 21.4 | 28.6 | – | 35.6 | 24.4 | 44.8 | 25.8
CC(C)(Cl)C(Br)CCC(=CCBr)CBr (mixture of isomers) | 3.17 | 2.42 | 15.6 | 15.7 | 5.93 | 62 | 22.9 | 4.25 | 5.56 | – | 14 | 12.5 | 18.3 | 14.2 | 5.06 | 4.09
O=C(Nn1c(-c2ccccc2)nc2ccccc2c1=O)c1ccc([N+](=O)[O-])cc1 | > 100 | > 100 | > 100 | > 100 | > 100 | > 100 | – | > 100 | > 100 | – | > 100 | > 100 | > 100 | > 100 | > 100 | > 100
CC(=O)c1cc2sc3ccccc3c2[nH]1 | > 100 | – | > 100 | > 100 | > 100 | – | > 100 | > 100 | – | > 100 | > 100 | > 100 | > 100 | – | > 100 | > 100
Oc1c(Nc2ccccc2)cc2c3c1N=NC=3CCN=2 | > 100 | 53.2 | > 100 | > 100 | > 100 | > 100 | > 100 | > 100 | > 100 | > 100 | > 100 | > 100 | > 100 | – | > 100 | > 100
CC(C)C1=CC23CCC4C(C)(C(=O)O)CCCC4(C)C2CC1C1C(=O)N(c2ccc(N4C(=O)C5C6CC7C8(C)CCCC(C)(C(=O)O)C8CCC7(C=C6C(C)C)C5C4=O)cc2)C(=O)C13 (configuration not stated) | > 100 | 17.2 | 18.4 | 24.7 | 15.2 | 18.7 | 26.7 | 15.8 | – | – | 16.4 | 29.9 | 24.8 | – | 25.1 | 14.4
CC(C)(C)OC(=O)CCC1NC(=O)[C@@H]2Cc3c([nH]c4ccccc34)C(c3ccccc3)N2C1=O (some centres not stated) | > 100 | 51.2 | 94.5 | 45.7 | 65.4 | > 100 | 43.2 | 87.2 | 98.7 | 75.8 | – | > 100 | > 100 | 50.1 | > 100 | 43.3
C/C(CC(O)(C(F)(F)Cl)C(F)(F)Cl)=N\Nc1ccccc1 | > 100 | 62.5 | 85.2 | 47.6 | > 100 | 93.8 | 79.7 | > 100 | > 100 | 67.2 | – | 95.3 | > 100 | > 100 | > 100 | 89.4
O=C(OC1C#CCSCC#C/C=C\1)c1cnc2ccccc2n1 (configuration not stated) | 26.3 | > 100 | > 100 | > 100 | – | > 100 | > 100 | > 100 | > 100 | – | > 100 | > 100 | > 100 | > 100 | > 100 | > 100
CCOC(=O)C1C(c2ccccc2)C2(C#N)C(=N)OC1(C)C2(C#N)C#N (configuration not stated) | 26.4 | 55.7 | 50.8 | 35.5 | – | > 100 | 59.6 | > 100 | 37.8 | 20.3 | 27 | 69.7 | 97.6 | 54.2 | – | > 100
CC(=O)OC12c3ccccc3C(c3ccccc31)C1C(=O)N(Nc3ccccc3)C(=O)C12 (configuration not stated) | > 100 | > 100 | > 100 | > 100 | > 100 | > 100 | – | > 100 | > 100 | > 100 | > 100 | > 100 | > 100 | > 100 | > 100 | > 100
CNC(=S)N/N=C(\C)c1cc(OC)c(OC)cc1O | > 100 | > 100 | > 100 | > 100 | > 100 | > 100 | > 100 | > 100 | > 100 | > 100 | > 100 | > 100 | > 100 | > 100 | – | > 100
C/C(=N/NC(=S)Nc1ccccc1C)c1ccccn1 | 18 | – | 10.3 | 13.2 | 17.4 | 6.46 | 12.8 | 5.7 | 12.1 | 19.5 | 26 | 4.27 | 12.3 | 1.88 | 18.5 | 18.1
CCOC(=O)C(=O)N=Nc1c(O)[nH]c2ccccc12 | > 100 | – | > 100 | > 100 | > 100 | > 100 | > 100 | > 100 | > 100 | > 100 | > 100 | > 100 | > 100 | > 100 | > 100 | > 100
CC1NC(=O)c2c(-c3ccccc3)nn(-c3ccccc3)c2NC1=O (configuration not stated) | > 100 | – | > 100 | > 100 | > 100 | > 100 | > 100 | > 100 | > 100 | > 100 | > 100 | > 100 | > 100 | > 100 | > 100 | > 100
CN1CCN(Cn2nc(-c3ccccc3)n(/N=C/c3ccc(-c4ccc(Cl)cc4Cl)o3)c2=S)CC1 | 33.9 | 80.3 | – | 14 | 41.3 | > 100 | 44.1 | 39.1 | 31.8 | 21.9 | 26.5 | 29.7 | 58.1 | 47.5 | 54.8 | 17.5
